Values joined by “and” are separate entries in the source; they are usually repeats but may differ in a detail not shown here. Equal entries are not always repeated. Where two headings read alike, the source gives them in different places. Where a SMILES comes first, the peptide text is derived from it.
Key:
[1] = molecular target: T1, myeloperoxidase (MPO) (Homo sapiens, UniProt P05164); assay: MPO chlorinating activity (Celestine Blue B assay); format: biochemical; settings: for IC50: 0.8 nM MPO heme, 200 μM CB, 150 mM NaCl, 50 μM H2O2, 50 mM Na-acetate pH 5.5, 5 min preincubation
T1 construct: Native myeloperoxidase (MPO) was obtained from human leukocyte extract by successive chromatography on heparin-Sepharose and phenyl-agarose; from tissue; host or cells: human leukocyte extract
T1 sequence (P05164 279-745 limits assumed): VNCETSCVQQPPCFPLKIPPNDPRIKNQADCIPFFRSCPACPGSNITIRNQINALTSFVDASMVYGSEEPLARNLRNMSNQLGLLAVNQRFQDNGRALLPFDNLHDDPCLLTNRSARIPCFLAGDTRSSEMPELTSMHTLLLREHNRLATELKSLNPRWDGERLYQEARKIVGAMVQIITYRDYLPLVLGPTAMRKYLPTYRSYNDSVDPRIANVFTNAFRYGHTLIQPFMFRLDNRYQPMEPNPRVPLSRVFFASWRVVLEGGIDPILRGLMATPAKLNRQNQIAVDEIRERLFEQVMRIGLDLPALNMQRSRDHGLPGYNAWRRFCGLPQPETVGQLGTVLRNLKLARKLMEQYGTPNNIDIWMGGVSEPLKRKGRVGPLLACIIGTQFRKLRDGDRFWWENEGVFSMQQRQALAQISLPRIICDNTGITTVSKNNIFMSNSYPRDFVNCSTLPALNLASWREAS
T1 sequence (P05164 165-273 limits assumed): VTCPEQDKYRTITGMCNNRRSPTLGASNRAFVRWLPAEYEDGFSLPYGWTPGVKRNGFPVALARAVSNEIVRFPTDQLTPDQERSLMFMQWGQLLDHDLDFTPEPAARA
Description: MPO chlorinating activity was evaluated fluorometrically using Celestine Blue B (CB) which was oxidized to fluorescent glycol (λex = 487 nm, λem = 578 nm) by taurine N-chloramine produced in the reaction of taurine with HOCl generated by MPO [39]. The assay was performed in 96-plate format. MPO was preincubated with peptides for 5 min in a volume of 100 μL, with the concentrations being: MPO, 1.6 nM heme and peptide, 16 nM–16 μM. Then, 100 μL aliquots of CB-containing mix (CB, 400 µM; H2O2, 100 µM; taurine, 4 mM; KI, 10 µM; NaCl, 300 mM; 50 mM Na-acetate buffer, pH 5.5) were added to MPO/peptide and to 100 μL of HOCl standards (0–150 μM). The fluorescence measurement was made with a CLARIOstar multimodal plate reader (BMG Labtech, Ortenberg, Germany) at 15 min after the reaction started. Fluorescence intensity detected for HOCl standards of HOCl was used for calculating the chlorinating activity as mole of HOCl per mole of MPO heme per second. To determine the type of CAMP-induced inhibition, KM and Vmax were obtained by varying substrates of MPO: NaCl in a final concentration from 25 to 300 mM, or H2O2 in a final concentration from 5 to 80 µM.
(§1) The Hannes-Wolf plots were made as ([Substrate]/V = f([Substrate]). KM was equal in magnitude to the intercept made on the abscissa axis by the approximating straight line; Vmax was calculated as a reciprocal value of the straight-line slope. The inhibition constant (Ki) for noncompetitive inhibition was calculated as follows: Ki = [I]/((Vmax − Vmax’)/Vmax’); Ki for competitive inhibition was calculated as follows: Ki = [I]/((KM’ − KM)/KM); Ki for mixed inhibition was calculated as follows: Ki = [I]/(((KM’ − KM)/KM)^2 + ((Vmax − Vmax’)/Vmax’))^2)^0.5; and Ki for uncompetitive inhibition was calculated as follows: Ki = [I]/(((KM − KM’)/KM’)^2 + ((Vmax – Vmax’)/Vmax’))^2)^0.5, where [I]—concentration of inhibitor (CAMP), KM—Michaelis constant without inhibitor, Vmax—maximal rate without inhibitor, KM’—Michaelis constant in the presence of inhibitor, Vmax’—maximal rate in the presence of inhibitor.
Chlorinating activity is a distinctive feature of MPO as compared with other peroxidases and it is an important property, enabling MPO to combat microbes. We tested whether the inhibitory effects of pept_1545 and Hm-AMP8 on peroxidase activity extend to MPO chlorinating activity. Chlorinating activity was measured using a fluorometric CB-based assay. To determine the concentration dependence of the effect of CAMPs on MPO chlorinating activity, the 0.008–8 μM concentration range (corresponding to 10–10,000 peptide molecules per heme) was used.

[2] = molecular target: T1, myeloperoxidase (MPO); assay: Measurement of sulfhydryl groups with MPO/H2O2 (DTNB); format: biochemical; settings: for free sulfhydryl groups, percentage relative to CAMP + MPO without H2O2: 150 μM peptide, 1 μM MPO heme, 100 μM H2O2, 10 mM Na-phosphate pH 7.4, mean ± SD, * p < 0.05 where marked
Description: The peroxidase reaction was carried out in 10 mM Na-phosphate buffer, pH 7.4 (containing 0.2 mM DTPA), in a volume of 60 μl placed in the wells of a 96-well plate. Peptides were added to MPO (1 μM heme) to a concentration of 150 μM. Following 5 min of incubation, H2O2 (100 μM, final) was added to test samples to trigger the reaction. Control samples were the same except H2O2. The content of free sulfhydryl groups was estimated spectrophotometrically by using 5,5′-dithiobis(2-nitrobenzoic acid) (DTNB, Ellman’s reagent) prepared in 0.4 M Tris-HCl buffer, pH 9.0. At a desired time after the reaction was started, 120 μL aliquots of freshly prepared DTNB-containing buffer were added to one part of samples (160 μM DTNB, final) and […] of the buffer without DTNB was added to another part of the same samples. […] Absorbance in the absence of DTNB was subtracted from that in the presence of DTNB. The loss of sulfhydryl groups was expressed as a percentage relative to controls incubated without H2O2.
To determine an estimation of whether the cysteine residue of pept_1545 and Hm-AMP8 participated in MPO-mediated reactions, we compared the content of free sulfhydryl groups in the reaction mixtures of peptides (150 μM) with the MPO/H2O2 system (1 μM heme, 100 μM H2O2) and control samples containing peptides plus MPO with no added H2O2. Measurements of sulfhydryl groups were made at 5 min and 90 min of incubation (Table 2).

[3] = molecular target: T1, myeloperoxidase (MPO); assay: MPO peroxidase activity (Amplex Red assay); format: biochemical; settings: for IC50: 50 μM Amplex Red, 25 μM H2O2, 50 mM K-phosphate pH 7.4, 5 min preincubation; for Ki: 20 μM pept_1545 or 2 μM Hm-AMP8, 50 mM K-phosphate pH 7.4, Hanes–Woolf
Description: MPO peroxidase activity was evaluated fluorometrically using Amplex Red^TM reagent which was oxidized by MPO to the fluorescent resorufin (λex = 530 nm, λem = 590 nm). The assay was performed in 96-plate format. The final reaction mixture in 50 mM K-phosphate buffer (pH 7.4) was as follows: MPO, 8 nM heme; peptide, […]; H2O2, 25 μM; Amplex Red reagent, 50 μM. MPO was preincubated with peptides for 5 min in a volume of 100 μl. Then, Amplex Red was added, and the enzymatic reaction was initiated by adding H2O2 (a final probe volume of 200 μL per well). The fluorescence measurement was made with a CLARIOstar multimodal plate reader (BMG Labtech, Ortenberg, Germany) at 5 min after the beginning of the reaction. To determine the type of CAMP-induced inhibition, KM and Vmax were obtained by varying substrates of MPO: Amplex Red in a final concentration from 1 to 62.5 μM, or H2O2 in a final concentration from 0.625 to 20 μM.
as §1
From the experiments with varying concentrations of H2O2 (0.01–200 μM) and Amplex Red (6.25–100 μM), the optimal concentrations of 25 μM H2O2 and 50 μM Amplex Red were chosen for further work. The 0.8–50 μM concentration range (corresponding to 100–6250 peptide molecules per heme) was used to determine the concentration dependence of the effect of CAMPs on peroxidase activity of MPO.

[4] = tested on: MPO; settings: cited from earlier work; for peroxidase substrate behaviour of free amino acid: literature statement
From the text: Free tyrosine is known to be a peroxidase substrate, reacting rapidly with both Compounds I and II. […] MPO-catalyzed oxidation of tyrosine occurs in the absence as well as presence of chloride, which is accompanied by hastened HOCl production. […] In addition to cysteine, pept_1545 contains tryptophan, another redox active amino acid. […] Fluorescence measurements (λex = 290 nm, λem = 310–450 nm) were ...

[5] = tested on: MPO; settings: MPO/H2O2 system; ref [57]; cited from earlier work
[6] = 8 μM pept_1545 or 0.8 μM Hm-AMP8, 25–300 mM NaCl, 50 μM H2O2, 0.8 nM MPO, 50 mM Na-acetate pH 5.5, Hanes–Woolf, read-out: Inhibition constant (Ki) towards Cl−
[7] = Ki towards H2O2 and Cl– (abstract, range over both substrates), chlorinating activity, pH 5.5
[8] = 0.625–20 μM H2O2, 50 μM Amplex Red, 8 nM MPO heme, read-out: Inhibition constant (Ki) towards H2O2, peroxidase activity
[9] = 1–62.5 μM Amplex Red, 25 μM H2O2, 8 nM MPO heme, read-out: Inhibition constant (Ki) towards Amplex Red

CC[C@H](C)[C@H](NC(=O)[C@H](C)NC(=O)[C@H](CC(N)=O)NC(=O)[C@H](Cc1ccc(O)cc1)NC(=O)[C@@H]1CCCN1C(=O)[C@@H](NC(=O)[C@H](CCCCN)NC(=O)[C@H](Cc1ccc(O)cc1)NC(=O)[C@@H](NC(=O)[C@@H](NC(=O)[C@H](C)NC(=O)[C@@H](N)CCCNC(=N)N)C(C)C)[C@@H](C)CC)[C@@H](C)CC)C(=O)N[C@@H](C)C(=O)N[C@@H](CO)C(=O)N[C@@H](CCCNC(=N)N)C(=O)N[C@@H](Cc1c[nH]c2ccccc12)C(=O)N[C@H](C(=O)N[C@H](C(=O)N[C@@H](C)C(=O)N1CCC[C@H]1C(=O)N[C@@H](CCCCN)C(=O)N[C@@H](CCCCN)C(=O)N[C@@H](CS)C(N)=O)[C@@H](C)CC)[C@@H](C)CC [Hm-AMP8] (H-RAVIYKIPYNAIASRWIIAPKKC-NH2)
IC50 [1]: 0.3 µM | Ki ([1]; 8 μM pept_1545 or 0.8 μM Hm-AMP8, 5–80 μM H2O2, 150 mM NaCl, 0.8 nM MPO, 50 mM Na-acetate pH 5.5, Hanes–Woolf, read-out: Inhibition constant (Ki) towards H2O2, chlorinating activity): 0.28 µM | Ki [1, 6]: 0.42 µM | Ki [1, 7]: 0.3 to 0.4 µM | free sulfhydryl groups, percentage relative to CAMP + MPO without H2O2 ([2]; 5 min incubation): 93 ± 5% | free sulfhydryl groups, percentage relative to CAMP + MPO without H2O2 ([2]; 90 min incubation): * 79 ± 6% | IC50 ([3]; 8 nM MPO heme): 1.7 µM and 2 µM | Ki [3, 8]: 1.79 µM | Ki [3, 9]: 1.1 µM

N[C@@H](CS)C(=O)O [cysteine]
bimolecular rate constant for reaction with Compound I ([4]; free cysteine, ref [50]): 4100 M⁻¹ s⁻¹ | bimolecular rate constant for reaction with Compound II ([4]; free cysteine, ref [50]): < 10 M⁻¹ s⁻¹ | peroxidase substrate behaviour of free amino acid [4]: poor peroxidase substrate

CC[C@H](C)[C@H](NC(=O)[C@H](C)NC(=O)[C@H](CCCCN)NC(=O)CNC(=O)[C@@H](NC(=O)[C@H](CC(C)C)NC(=O)[C@@H](N)Cc1ccccc1)[C@@H](C)CC)C(=O)N[C@@H](CCCCN)C(=O)N[C@@H](CCCNC(=N)N)C(=O)N[C@@H](CCCCN)C(=O)N[C@@H](Cc1ccccc1)C(=O)N[C@@H](CS)C(=O)N[C@@H](CC(C)C)C(=O)N[C@@H](CCCNC(=N)N)C(=O)N[C@@H](CO)C(=O)N[C@H](C(=O)N[C@@H](Cc1c[nH]c2ccccc12)C(=O)N[C@@H](CC(N)=O)C(=O)N[C@@H](C)C(N)=O)C(C)C [pept_1545] (H-FLIGKAIKRKFCLRSVWNA-NH2)
IC50 [1]: 7.4 µM | Ki [1, 6]: 19.5 µM | Ki [1, 7]: 11 to 20 µM | decrease in amount of –SH groups ([2]; 5 min incubation with MPO/H2O2): about 20% | free sulfhydryl groups, percentage relative to CAMP + MPO without H2O2 ([2]; 5 min incubation): * 80 ± 4% | free sulfhydryl groups, percentage relative to CAMP + MPO without H2O2 ([2]; 90 min incubation): * 76 ± 5% | IC50 ([3]; 8 nM MPO heme): 11.2 µM | Ki [3, 8]: 52.8 µM | Ki [3, 9]: 48.3 µM

N[C@@H](Cc1c[nH]c2ccccc12)C(=O)O [tryptophan]
peroxidase substrate behaviour of free amino acid [4]: poor peroxidase substrate

N[C@@H](Cc1ccc(O)cc1)C(=O)O [tyrosine]
bimolecular rate constant for reaction with Compound I ([4]; free tyrosine, ref [42]): 770000 M⁻¹ s⁻¹ | bimolecular rate constant for reaction with Compound II ([4]; free tyrosine, ref [42]): 16000 M⁻¹ s⁻¹ | peroxidase substrate behaviour of free amino acid [4]: accelerates MPO turnover

N-acetyl lysyltyrosylcysteine amide [KYC]
formation of dityrosine [5]: formation of dityrosine only by KYS | oxidation of tyrosine residues by MPO [5]: MPO oxidized tyrosine residues in both KYC and KYS

N-acetyl lysyltyrosylserine amide [KYS]
formation of dityrosine [5]: formation of dityrosine only by KYS | oxidation of tyrosine residues by MPO [5]: MPO oxidized tyrosine residues in both KYC and KYS

Reference: publication PMC9774438, “Effects of Synthetic Short Cationic Antimicrobial Peptides on the Catalytic Activity of Myeloperoxidase, Reducing Its Oxidative Capacity” (Antioxidants, 2022)
